From patent US8901276B2, “Peptide reagents and methods for detection of colon dysplasia” (The Regents of the University of Michigan, priority 2010, dated 2014)
Where no end group is shown, it is not given here.

What was measured:
adenomatous polyps = assay: Confocal microscopy of polyp biopsy after in vivo peptide administration; set-up: species or system CPC;Apc mice; conditions: biopsy after in vivo FITC-peptide administration
Protocol: Preferential binding of Peptide compared to the Control peptide 1 on the adenomatous polyps was confirmed with confocal microscopy. A polyp biopsy was taken after 5′-FITC-labeled peptide administration in vivo, incubated in 1 μg/mL Hoechst dye for 5 minutes to stain living nuclei, rinsed 3× with 1×PBS and imaged on a Leica Confocal Microscope (Leica Microsystems, Bannockburn, Ill.).

excised polyps = assay: Ex vivo peptide binding to excised polyps; set-up: species or system CPC;Apc mice; conditions: 100 μM, 5 min
Protocol: Polyps from CPC;Apc mice (n=3 mice, 5 polyp pairs) were excised and washed 3× in PBS. The polyps were incubated in 100 μM peptide solution for 5 minutes and subsequently washed 3× with 1×PBS. Polyps were grossly imaged using the small animal endoscope to view binding to the polyp as a whole. Pairs of polyps (one candidate, one control) were imaged at a time to allow for the calculation of a candidate peptide to Control peptide 1 binding ratio for each pair analyzed. An average binding ratio was calculated ± one standard deviation. A similar procedure to determine mean grey scale values for image analysis was followed for the ex vivo polyps as described above for the in vivo polyps.

With “QPIHPNNM (also: FITC or Cy5.5 label) [Peptide 1, tested FITC- or Cy5.5-labeled]” the “binding to adenomas, confocal images of biopsied polyps” value (adenomatous polyps) was “bound more to adenomas than the Control peptide 1” and the “increase in binding compared to Control peptide 1” value (excised polyps) was roughly 2 fold.
